From publication PMC7534198, “The structural basis for the selectivity of sulfonamido dicarbaboranes toward cancer-associated carbonic anhydrase IX” (Journal of Enzyme Inhibition and Medicinal Chemistry, 2020)

target: T1, CA IX (Homo sapiens, UniProt Q16790, C174S); test: stopped-flow CO2 hydration; format: biochemical; conditions: 8.5 mM CO2, 20 mM HEPES-Na pH 7.5, 20 mM Na2SO4, 25 °C, 0.0025% DDM, 0.5 nM enzyme; Cheng-Prusoff; read-out: In vitro inhibition / Ki (CA IX)
T1 construct: gene CA9; extracellular part, PG and CA domains, residues 38-391, C174S; expressed in HEK 293 cells and purified
Excerpt: stopped-flow CO2 hydration on CA IX

| Substance | Ki [nM] |
| --- | --- |
| [7-H2NSO2-(CH2)6–7,8-nido-C2B9H11]K [6b^−] | 29.3 ± 7.39 |
| 1-H2NSO2(CH2)5-1,2-closo-C2B10H11 [5a] | 14.8 ± 1.98 |
| [7-H2NSO2-(CH2)5–7,8-nido-C2B9H11]K [5b^−] | 10.6 ± 1.37 |
| 1-H2NSO2(CH2)6–1,2-closo-C2B10H11 [6a] | 44.6 ± 4.86 |

target: T2, CA II (Homo sapiens, UniProt P00918); test: stopped-flow CO2 hydration; format: biochemical; conditions: 8.5 mM CO2, 20 mM HEPES-Na pH 7.5, 20 mM Na2SO4, 25 °C, 2.5 nM enzyme; Cheng-Prusoff; read-out: In vitro inhibition / Ki (CA II)
T2 construct: gene CA2; recombinant, expressed in E. coli and purified
Excerpt: stopped-flow CO2 hydration on CA II

| Substance | Ki [nM] |
| --- | --- |
| [7-H2NSO2-(CH2)6–7,8-nido-C2B9H11]K [6b^−] | 29.5 ± 3.32 |
| 1-H2NSO2(CH2)5-1,2-closo-C2B10H11 [5a] | 1300 ± 122 |
| [7-H2NSO2-(CH2)5–7,8-nido-C2B9H11]K [5b^−] | 299 ± 26 |
| 1-H2NSO2(CH2)6–1,2-closo-C2B10H11 [6a] | 821 ± 70.7 |
